In US20070093538A1, “Preparation for the fungicidal and algicidal finish of alkaline coating compositions” (priority 2005, published 2007):

Tested on: Scenedesmus cavuolatus (CS, Chlorella fusca)
Assay: Determination of the resistance to colonization by algae (render coat on paper, media for algae)
Format: cell-based
Settings: +0.25% benzalkonium chloride, 50% strength, 5 month storage
Protocol: The unfinished material (commercially available render, pH 11.5) is treated, in separate batches, with different concentrations of the preservative A according to the invention.
The test was carried out once after the samples had been prepared and then after storage in wet render for 3 months or 5 months.
Laboratory method for determining the resistance of facade coats to colonization by algae. In this method, facade coats on standardized paper are used as the test substrate, and Scenedesmus cavuolatus (CS, Chlorella fusca) as the test alga.
The experiments are carried out in Petri dishes on media for algae.
1000 g of the material to be finished were, in separate batches, mixed with various concentrations of the test microbicide and homogenized using a suitable stirrer.
Paper supports (Schleicher & Schüll No. 2589 B/X 24078) 90×270 mm in size are coated with the test material. The paint or render samples are applied as a coat to wet-layer thickness of 250 μm, using a knife. The knife must have an opening of at least 6.5 cm in width. In the case of renders, the layer thickness depends on the particle size, as is the case under practice conditions. The coated supports, hereinbelow referred to as test specimens, are subsequently dried for 5 days in a horizontal position. […]
The colonization of the samples with algae is examined and evaluated after 2 weeks. […]

benzalkonium chloride [benzalkonium chloride, 50% strength]
Inhibitory zone in mm (first group of rows (leaching not given, presumably none)): >18 mm
Inhibitory zone in mm (second group of rows (leaching not given, presumably 72 h)): >18 mm
